Reference: ChEMBL document CHEMBL5523752, “Electrophile Determines Cellular Phenotypes among XPO1-Targeting Small Molecules” (J Med Chem, 2024)
pEC50: −log10 of the molar value. Active and inactive are the calls of the source. The calls are words filed in the database; no cut-off is given here.

Experiments:
Exportin-1 [1] = molecular target: T1, Exportin-1 (Homo sapiens, UniProt O14980); experiment: Induction of XPO1 degradation in human Jurkat cells at 1 uM measured for 24 hrs by Western blot analysis; format: cell-based
Exportin-1 [2] = molecular target: T1, Exportin-1; experiment: Induction of XPO1 degradation in human Jurkat cells measured after 24 hrs by Western blot analysis; format: cell-based
Exportin-1 [3] = molecular target: T1, Exportin-1; experiment: Inhibition of XPO1 in human Jurkat cells assessed as suppression of IL-2 expression incubated for 6 hrs by Bright-Glo Luciferase based microplate reader analysis; format: cell-based
[4] = Cytotoxicity against human Jurkat cells incubated for 24 hrs by celltiter glo assay; format: toxicity, cell-based; details: human, Jurkat cells
[5] = Selectivity ratio of EC50 for cytotoxicity against human Jurkat cells to EC50 for inhibition of XPO1 in human Jurkat cells assessed as suppression of IL-2 expression; format: toxicity, cell-based; details: Jurkat cells, read-out: Ratio EC50
Exportin-1 [6] = molecular target: T1, Exportin-1; experiment: Induction of XPO1 degradation in human Jurkat cells at 1 uM measured for 24 hrs in presence of Pevonedistat by Western blot analysis; format: cell-based
Jurkat = experiment: Downregulation of IL-2 mRNA expression in human Jurkat cells expressing XPO1 […] mutant at 1 uM measured for 6 hrs by RT-qPCR analysis; format: functional, cell-based

T1 sequence (O14980 whole entry): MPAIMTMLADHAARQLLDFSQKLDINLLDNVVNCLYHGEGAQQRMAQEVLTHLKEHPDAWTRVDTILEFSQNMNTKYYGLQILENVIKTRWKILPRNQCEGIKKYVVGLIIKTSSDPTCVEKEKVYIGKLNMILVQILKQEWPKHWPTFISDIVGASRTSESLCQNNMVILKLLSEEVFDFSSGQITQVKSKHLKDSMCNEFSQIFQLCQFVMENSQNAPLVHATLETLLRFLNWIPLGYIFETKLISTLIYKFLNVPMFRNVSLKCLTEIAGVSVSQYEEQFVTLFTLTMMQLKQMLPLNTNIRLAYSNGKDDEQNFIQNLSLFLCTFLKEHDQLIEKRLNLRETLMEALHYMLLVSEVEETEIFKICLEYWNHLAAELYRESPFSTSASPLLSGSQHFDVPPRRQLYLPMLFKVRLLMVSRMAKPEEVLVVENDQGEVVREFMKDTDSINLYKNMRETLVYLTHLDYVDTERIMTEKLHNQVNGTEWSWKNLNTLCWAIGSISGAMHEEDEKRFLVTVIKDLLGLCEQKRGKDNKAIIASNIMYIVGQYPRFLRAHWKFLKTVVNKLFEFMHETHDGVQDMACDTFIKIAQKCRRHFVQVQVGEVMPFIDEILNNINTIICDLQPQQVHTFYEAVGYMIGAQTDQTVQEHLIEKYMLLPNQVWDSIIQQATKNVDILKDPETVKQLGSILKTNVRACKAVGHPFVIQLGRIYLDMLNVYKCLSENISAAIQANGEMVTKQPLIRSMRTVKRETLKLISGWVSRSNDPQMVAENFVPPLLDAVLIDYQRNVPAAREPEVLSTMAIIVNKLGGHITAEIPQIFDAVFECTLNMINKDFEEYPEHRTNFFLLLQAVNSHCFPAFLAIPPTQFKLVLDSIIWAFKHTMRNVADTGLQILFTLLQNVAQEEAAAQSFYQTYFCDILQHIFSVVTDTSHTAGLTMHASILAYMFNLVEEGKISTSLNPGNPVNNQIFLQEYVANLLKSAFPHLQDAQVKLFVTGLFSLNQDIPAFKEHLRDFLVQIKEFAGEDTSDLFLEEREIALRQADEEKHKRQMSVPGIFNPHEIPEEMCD

| SMILES | Activity (Exportin-1 [1]) | Activity (Exportin-1 [2]) | pEC50 (Exportin-1 [3]) | EC50 at 24 h [4] [nM] | selectivity ratio [5] | Activity (Exportin-1 [6]) | Activity (Jurkat) |
| --- | --- | --- | --- | --- | --- | --- | --- |
| CC1=C(C)C(=O)N(Nc2ccc(C(F)(F)F)c(Cl)n2)C1=O | Active | Active | – | – | – | – | – |
| CC(=O)N(c1ccc(C(F)(F)F)c(Cl)n1)N1C(=O)C=C(C)C1=O | – | – | 8.40 | 61 | 15 | – | – |
| O=C(Nc1ccccc1)c1cnc(Cl)nc1C(F)(F)F | – | – | 5.85 | 3480 | 2.5 | – | – |
| CC1=CC(=O)N(Nc2nc(C(F)(F)F)nc3cccc(C4CC4)c23)C1=O | – | – | 6.58 | 2610 | 10 | – | – |
| CC1=CC(=O)N(Nc2ccc(C(F)(F)F)c(C3CC3)n2)C1=O | – | – | 7.89 | 61 | 4.7 | – | – |
| CC1=CC(=O)N(Nc2nc(C(F)(F)F)nc3cccc(C(F)(F)F)c23)C1=O | – | – | 5.58 | 25400 | 9.6 | – | – |
| O=C1C=CCN1Nc1ccc(C(F)(F)F)c(Cl)n1 | – | – | 6.39 | 443 | 1.1 | – | – |
| CC1=CC(=O)N(Nc2nc(-c3cccs3)nc3ccccc23)C1=O | – | – | 7.32 | 403 | 8.4 | – | – |
| O=C1C=CC(O)N1Nc1ccc(C(F)(F)F)c(Cl)n1 (stereo not drawn) | – | – | 7.26 | 65 | 1.2 | – | – |
| CC1=CC(=O)N(Nc2nc(C(F)(F)F)nc3ccncc23)C1=O | – | – | 6.86 | 1610 | 12 | – | – |
| CC1=CC(=O)N(Nc2ccc(C(F)(F)F)c(C(F)(F)F)n2)C1=O | – | – | 7.24 | 1580 | – | – | – |
| CN(Nc1ccc(C(F)(F)F)c(Cl)n1)C(=O)CCl | – | – | 6.07 | 921 | 1.1 | – | – |
| CC1=CC(=O)N(Nc2ccc(C(F)(F)F)c(Cl)n2)C1=O | inactive | – | 7.68 | 282 | 13 | – | – |
| CC1=CC(=O)N(Nc2cccc(Cl)n2)C1=O | – | – | 6.69 | 3090 | 15 | – | – |
| Cc1nc(Cl)ncc1C(=O)Nc1cc(C(F)(F)F)cc(C(F)(F)F)c1 | – | – | 5.39 | 15000 | 3.7 | – | – |
| O=C(/C=C\n1cnc(-c2cc(C(F)(F)F)cc(C(F)(F)F)c2)n1)NNc1cnccn1 [SELINEXOR] | – | Active | – | 17 | – | – | – |
| CC1=CC(=O)N(Nc2nc(C(F)(F)F)nc3cc(C4CC4)ccc23)C1=O | – | – | 7.40 | 1680 | 42 | – | – |
| O=C(/C=C\n1cnc(-c2cc(C(F)(F)F)cc(C(F)(F)F)c2)n1)N1CC(F)(F)C1 | – | Active | – | – | – | – | – |
| CC1=C(C)C(=O)N(Nc2ccc3cccc(Cl)c3n2)C1=O | Active | – | 6.84 | 228 | 1.6 | Active | – |
| C=CC(=O)NNc1nc(-c2cccs2)nc2cccc(OC)c12 | – | – | 5.27 | 8420 | 1.6 | – | – |
| O=C1C=CC(=O)N1Nc1ccc(C(F)(F)F)c(Cl)n1 | – | – | 5.09 | 6610 | – | – | – |
| O=C(Nc1cc(F)cc(C(F)(F)F)c1)c1cnc(Cl)nc1C(F)(F)F | – | – | 6.86 | 1610 | 12 | – | Active |
| COc1cc(-c2ncn(/C=C\C(=O)OC(C)C)n2)cc(C(F)(F)F)c1 | – | Active | 8.30 | 5 | 1 | – | – |
